# Results taken from patent US11926625B2, “HPK1 antagonists and uses thereof” (Nimbus Saturn, Inc., priority 2021, dated 2024).
# Target: T1, HPK1 (Homo sapiens, UniProt Q92918)
# T1 construct: purchased Invitrogen
# Experiment: HPK1 biochemical enzyme assay (microfluidic mobility shift, Caliper)
# Settings: 1.5 nM HPK1 (Invitrogen), 1 mM ATP, 30 min preincubation, 60 min at RT, top concentration 3 μM; read-out: HPK1 1000UMATP caliper IC50
# Experimental: Example 20. HPK1 Biochemical Enzyme Assay
# HPK1 biochemical enzyme assay: HPK1 enzyme inhibition was measured using a microfluidic mobility shift assay. Reactions were performed in a 384-well plate, containing 1.5 nM HPK1 (Invitrogen), in assay buffer (Cama Biosciences; pH 7.4). Test compounds were titrated in ten point curves (top final assay concentration 3 μM), and preincubated with enzyme/substrate mix for 30 min prior to initiation of the reaction by addition of ATP (1 mM final concentration) and substrate (1 μM final concentration; Carna Biosciences) diluted in assay buffer supplemented by MgCl2 (final assay concentration of 5 mM). Following 60 min incubation at RT, the reaction was terminated by addition of 60 μl/well termination buffer (Carna Biosciences) and signal determination using a Caliper EZ Reader (Perkin Elmer, UK).
# T1 sequence (Q92918 whole entry): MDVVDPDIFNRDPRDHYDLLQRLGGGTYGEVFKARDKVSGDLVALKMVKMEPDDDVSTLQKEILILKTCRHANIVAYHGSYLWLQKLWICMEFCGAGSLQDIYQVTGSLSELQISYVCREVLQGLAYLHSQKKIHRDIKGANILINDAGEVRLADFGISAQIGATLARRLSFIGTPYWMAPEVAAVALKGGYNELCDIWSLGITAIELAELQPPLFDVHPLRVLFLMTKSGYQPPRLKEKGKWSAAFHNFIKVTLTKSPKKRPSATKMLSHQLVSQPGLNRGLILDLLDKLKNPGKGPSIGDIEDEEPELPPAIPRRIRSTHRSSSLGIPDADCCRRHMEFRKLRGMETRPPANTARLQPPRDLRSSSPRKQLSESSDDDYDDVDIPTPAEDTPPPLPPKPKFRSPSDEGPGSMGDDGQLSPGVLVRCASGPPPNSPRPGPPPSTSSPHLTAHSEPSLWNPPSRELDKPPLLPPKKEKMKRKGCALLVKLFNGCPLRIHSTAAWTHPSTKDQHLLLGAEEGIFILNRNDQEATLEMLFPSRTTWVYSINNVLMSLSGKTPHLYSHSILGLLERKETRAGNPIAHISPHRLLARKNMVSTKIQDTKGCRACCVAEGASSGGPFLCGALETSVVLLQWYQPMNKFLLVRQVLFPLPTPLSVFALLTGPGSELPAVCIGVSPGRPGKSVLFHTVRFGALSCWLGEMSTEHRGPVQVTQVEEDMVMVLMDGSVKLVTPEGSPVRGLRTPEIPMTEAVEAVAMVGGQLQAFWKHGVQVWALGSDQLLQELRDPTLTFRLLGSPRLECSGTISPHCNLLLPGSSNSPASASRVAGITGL
row,IC50 [nM],Compound
1,1000 to 5000,"O=C1NCc2c(N3CCOCC3)ncc(Nc3ccc(N4CCNCC4)cn3)c21 [Compound I-16, 4-morpholino-7-[(5-piperazin-1-yl-2-pyridyl)amino]-2,3-dihydropyrrolo [3,4-c]pyridin-1-one]"
2,1000 to 5000,"Cn1cc(-c2ncc(Nc3ccc(N4CCNCC4)cn3)c3c2CNC3=O)cn1 [Compound I-17, 4-(1-methylpyrazol-4-yl)-7-[(5-piperazin-1-yl-2-pyridyl)amino]-2,3-dihydropyrrolo [3,4-c]pyridin-1-one]"
3,1000 to 5000,"O=C1NCc2c(-c3cnco3)ncc(Nc3ccc(N4CCNCC4)cn3)c21 [Compound I-18, 4-oxazol-5-yl-7-[(5-piperazin-1-yl-2-pyridyl)amino]-2,3-dihydropyrrolo [3,4-c]pyridin-1-one]"
4,1000 to 5000,"COc1cccc(-c2ncc(Nc3ccc(N4CCN(C)CC4)cn3)c3c2CNC3=O)c1OC [Compound I-19, 4-(2,3-dimethoxyphenyl)-7-[[5-(4-methylpiperazin-1-yl)-2-pyridyl]amino]-2,3-dihydropyrrolo [3,4-c]pyridin-1-one]"
5,1000 to 5000,"COc1cccc(-c2ncc(Nc3ccc(N4CCNCC4)cn3)c3c2CNC3=O)c1OC [Compound I-20, 4-(2,3-dimethoxyphenyl)-7-[(5-piperazin-1-yl-2-pyridyl)amino]-2,3-dihydropyrrolo [3,4-c]pyridin-1-one]"
6,1000 to 5000,"CCc1cnc(C)cc1-c1ncc(Nc2ccc(N3CCNCC3)cn2)c2c1CNC2=O [Compound I-21, 4-(5-ethyl-2-methyl-4-pyridyl)-7-[(5-piperazin-1-yl-2-pyridyl)amino]-2,3-dihydropyrrolo [3,4-c]pyridin-1-one]"
7,1000 to 5000,"CN1CCN(c2ccc(Nc3cnc(-c4ccncc4F)c4c3C(=O)NC4)nc2)CC1 [Compound I-22, 4-(3-fluoro-4-pyridyl)-7-[[5-(4-methylpiperazin-1-yl)-2-pyridyl]amino]-2,3-dihydropyrrolo [3,4-c]pyridin-1-one]"
8,< 1000,"CN1CCN(c2ccc(Nc3cnc(-c4cc[nH]c4)c4c3C(=O)NC4)nc2)CC1 [Compound I-23, 7-[[5-(4-methylpiperazin-1-yl)-2-pyridyl]amino]-4-(1H-pyrrol-3-yl)-2,3-dihydropyrrolo [3,4-c]pyridin-1-one]"
9,< 1000,CCN1CCN(Cc2ccc(NC(=O)c3ccc(-c4ncc(Nc5ccc(N6CCN(C)CC6)cn5)c5c4CNC5=O)cc3)cc2C(F)(F)F)CC1 [Compound I-24]
10,< 1000,"CN1CCN(c2ccc(Nc3ccc(-c4ccncc4)c4c3C(=O)NC4)nc2)CC1 [Compound I-25, 7-[[5-(4-methylpiperazin-1-yl)-2-pyridyl]amino]-4-(4-pyridyl) isoindolin-1-one]"
11,< 1000,"O=C1NCc2c(-c3ccncc3)ccc(Nc3ccc(N4CCOCC4)cn3)c21 [Compound I-26, 7-[(5-morpholino-2-pyridyl)amino]-4-(4-pyridyl) isoindolin-1-one]"
12,< 1000,"O=C1NCc2c(-c3ccncc3)ccc(Nc3ccc(N4CCNCC4)cn3)c21 [Compound I-27, 7-[(5-piperazin-1-yl-2-pyridyl)amino]-4-(4-pyridyl) isoindolin-1-one]"
13,< 1000,"O=C1NCc2c(-c3ccncc3)ccc(Nc3ccc(N4CCC(O)CC4)cn3)c21 [Compound I-28, 7-[[5-(4-hydroxy-1-piperidyl)-2-pyridyl]amino]-4-(4-pyridyl) isoindolin-1-one]"
14,< 1000,"CN1CCN(c2ccc(Nc3ccc(-c4ccccc4)c4c3C(=O)NC4)nc2)CC1 [Compound I-29, 7-[[5-(4-methylpiperazin-1-yl)-2-pyridyl]amino]-4-phenyl-isoindolin-1-one]"
15,< 1000,"CN1CCN(c2ccc(Nc3ccc(-c4cccnc4)c4c3C(=O)NC4)nc2)CC1 [Compound I-30, 7-[[5-(4-methylpiperazin-1-yl)-2-pyridyl]amino]-4-(3-pyridyl) isoindolin-1-one]"
16,< 1000,"CN1CCN(c2ccc(Nc3ccc(-c4ccccn4)c4c3C(=O)NC4)nc2)CC1 [Compound I-31, 7-[[5-(4-methylpiperazin-1-yl)-2-pyridyl]amino]-4-(2-pyridyl) isoindolin-1-one]"
17,< 1000,"CN1CCN(c2ccc(Nc3ccc(-c4ccnc(N5CCOCC5)c4)c4c3C(=O)NC4)nc2)CC1 [Compound I-32, 7-[[5-(4-methylpiperazin-1-yl)-2-pyridyl]amino]-4-(2-morpholino-4-pyridyl) isoindolin-1-one]"
18,1000 to 5000,"CN1CCN(c2ccc(Nc3ccc(-c4ccnc(N5CCC6(CCOCC6)CC5)c4)c4c3C(=O)NC4)nc2)CC1 [Compound I-33, 7-[[5-(4-methylpiperazin-1-yl)-2-pyridyl]amino]-4-[2-(3-oxa-9-azaspiro[5. 5]undecan-9-yl)-4-pyridyl] isoindolin-1-one]"

row,IC50 [nM],Compound
1,< 1000,"CN1CCN(c2ccc(Nc3ccc(-c4ccnc(N5CCCCC5)c4)c4c3C(=O)NC4)nc2)CC1 [Compound I-34, 7-[[5-(4-methylpiperazin-1-yl)-2-pyridyl]amino]-4-[2-(1-piperidyl)-4-pyridyl] isoindolin-1-one]"
2,< 1000,"CN1CCN(c2ccc(Nc3ccc(-c4ccnc(C(C)(C)C#N)c4)c4c3C(=O)NC4)nc2)CC1 [Compound I-35, 2-methyl-2-[4-[7-[[5-(4-methylpiperazin-1-yl)-2-pyridyl]amino]-1-oxo-isoindolin-4-yl]-2-pyridyl] propanenitrile]"
3,< 1000,"O=C1NCc2c(-c3ccncc3)ccc(Nc3cc(C4CCOC4)n[nH]3)c21 (centres unmarked) [Compound I-36, 4-(4-pyridyl)-7-[(3-tetrahydrofuran-3-yl-1H-pyrazol-5-yl)amino] isoindolin-1-one]"
4,< 1000,"CN1CCN(c2ccc(Nc3ccc(-c4ccnc(N5CCC(C#N)CC5)c4)c4c3C(=O)NC4)nc2)CC1 [Compound I-37, 1-[4-[7-[[5-(4-methylpiperazin-1-yl)-2-pyridyl]amino]-1-oxo-isoindolin-4-yl]-2-pyridyl] piperidine-4-carbonitrile]"
5,1000 to 5000,"CN1CCN(c2ccc(Nc3ccc(-c4ccnc(N5CCC6(CCCO6)CC5)c4)c4c3C(=O)NC4)nc2)CC1 [Compound I-38, 7-[[5-(4-methylpiperazin-1-yl)-2-pyridyl]amino]-4-[2-(1-oxa-8-azaspiro[4. 5]decan-8-yl)-4-pyridyl] isoindolin-1-one]"
6,< 1000,"CN1CCN(c2ccc(Nc3ccc(-c4ccnc(OCC(=O)N5CCCCC5)c4)c4c3C(=O)NC4)nc2)CC1 [Compound I-39, 7-[[5-(4-methylpiperazin-1-yl)-2-pyridyl]amino]-4-[2-[2-oxo-2-(1-piperidyl)ethoxy]-4-pyridyl] isoindolin-1-one]"
7,1000 to 5000,"CN1CCN(c2ccc(Nc3ccc(-c4ccnc(-c5c(F)cccc5F)c4)c4c3C(=O)NC4)nc2)CC1 [Compound I-40, 4-[2-(2,6-difluorophenyl)-4-pyridyl]-7-[[5-(4-methylpiperazin-1-yl)-2-pyridyl]amino] isoindolin-1-one]"
8,1000 to 5000,CN1CCN(c2ccc(Nc3ccc(-c4ccnc(N5CC6CCC(C5)O6)c4)c4c3C(=O)NC4)nc2)CC1 [Compound I-41]
9,< 1000,"CN1CCN(c2ccc(Nc3ccc(-c4ccnc(N5CCC6(CCNC6)CC5)c4)c4c3C(=O)NC4)nc2)CC1 [Compound I-42, 4-[2-(2,8-diazaspiro [4.5]decan-8-yl)-4-pyridyl]-7-[[5-(4-methylpiperazin-1-yl)-2-pyridyl]amino] isoindolin-1-one]"
10,1000 to 5000,"CC(=O)N1CCN(c2cc(-c3ccc(Nc4ccc(N5CCN(C)CC5)cn4)c4c3CNC4=O)ccn2)CC1 [Compound I-43, 4-[2-(4-acetylpiperazin-1-yl)-4-pyridyl]-7-[[5-(4-methylpiperazin-1-yl)-2-pyridyl]amino] isoindolin-1-one]"
11,1000 to 5000,"CN1CCN(c2ccc(Nc3ccc(-c4ccnc(C5CCOCC5)c4)c4c3C(=O)NC4)nc2)CC1 [Compound I-44, 7-[[5-(4-methylpiperazin-1-yl)-2-pyridyl]amino]-4-(2-tetrahydropyran-4-yl-4-pyridyl) isoindolin-1-one]"
12,< 1000,"CN1CCN(c2ccc(Nc3ccc(-c4ccncn4)c4c3C(=O)NC4)nc2)CC1 [Compound I-45, 7-[[5-(4-methylpiperazin-1-yl)-2-pyridyl]amino]-4-pyrimidin-4-yl-isoindolin-1-one]"
13,< 1000,"CN1CCN(c2ccc(Nc3ccc(-c4ccnc(C5(C#N)CCOCC5)c4)c4c3C(=O)NC4)nc2)CC1 [Compound I-46, 4-[4-[7-[[5-(4-methylpiperazin-1-yl)-2-pyridyl]amino]-1-oxo-isoindolin-4-yl]-2-pyridyl] tetrahydropyran-4-carbonitrile]"
14,< 1000,"CN1CCN(c2ccc(Nc3ccc(-c4ccnc(OCC5CCC5)c4)c4c3C(=O)NC4)nc2)CC1 [Compound I-47, 4-[2-(cyclobutylmethoxy)-4-pyridyl]-7-[[5-(4-methylpiperazin-1-yl)-2-pyridyl]amino] isoindolin-1-one]"
15,< 1000,"CNc1cc(-c2ccc(Nc3ccc(N4CCN(C)CC4)cn3)c3c2CNC3=O)ncn1 [Compound I-48, 4-[6-(methylamino)pyrimidin-4-yl]-7-[[5-(4-methylpiperazin-1-yl)-2-pyridyl]amino] isoindolin-1-one]"
16,< 1000,"CNc1nccc(-c2ccc(Nc3ccc(N4CCN(C)CC4)cn3)c3c2CNC3=O)n1 [Compound I-49, 4-[2-(methylamino)pyrimidin-4-yl]-7-[[5-(4-methylpiperazin-1-yl)-2-pyridyl]amino] isoindolin-1-one]"
17,< 1000,CN1CCN(c2ccc(Nc3ccc(-c4ccnc(N(C)C)c4)c4c3C(=O)NC4)nc2)CC1 [Compound I-50]
